# Measured values from ChEMBL document CHEMBL4476883, “Hydroxy formamide derivatives and their use” (2017).
# Key:
# [1] = target: T1, Bone morphogenetic protein 1 (Homo sapiens, UniProt P13497); experiment: Inhibition of C-terminal FLAG-6x-His epitope tagged and N-terminal human RAGE signal sequence tagged human BMP1 (23 to 721 amino acids) expressed in CHO-E1A cells pre-incubated for 10 mins before promyostatin peptide substrate addition and measured after 60 mins using 0.5 nM BMP1 by FRET based assay; assay type: cell-based
# T1 sequence (P13497 whole entry): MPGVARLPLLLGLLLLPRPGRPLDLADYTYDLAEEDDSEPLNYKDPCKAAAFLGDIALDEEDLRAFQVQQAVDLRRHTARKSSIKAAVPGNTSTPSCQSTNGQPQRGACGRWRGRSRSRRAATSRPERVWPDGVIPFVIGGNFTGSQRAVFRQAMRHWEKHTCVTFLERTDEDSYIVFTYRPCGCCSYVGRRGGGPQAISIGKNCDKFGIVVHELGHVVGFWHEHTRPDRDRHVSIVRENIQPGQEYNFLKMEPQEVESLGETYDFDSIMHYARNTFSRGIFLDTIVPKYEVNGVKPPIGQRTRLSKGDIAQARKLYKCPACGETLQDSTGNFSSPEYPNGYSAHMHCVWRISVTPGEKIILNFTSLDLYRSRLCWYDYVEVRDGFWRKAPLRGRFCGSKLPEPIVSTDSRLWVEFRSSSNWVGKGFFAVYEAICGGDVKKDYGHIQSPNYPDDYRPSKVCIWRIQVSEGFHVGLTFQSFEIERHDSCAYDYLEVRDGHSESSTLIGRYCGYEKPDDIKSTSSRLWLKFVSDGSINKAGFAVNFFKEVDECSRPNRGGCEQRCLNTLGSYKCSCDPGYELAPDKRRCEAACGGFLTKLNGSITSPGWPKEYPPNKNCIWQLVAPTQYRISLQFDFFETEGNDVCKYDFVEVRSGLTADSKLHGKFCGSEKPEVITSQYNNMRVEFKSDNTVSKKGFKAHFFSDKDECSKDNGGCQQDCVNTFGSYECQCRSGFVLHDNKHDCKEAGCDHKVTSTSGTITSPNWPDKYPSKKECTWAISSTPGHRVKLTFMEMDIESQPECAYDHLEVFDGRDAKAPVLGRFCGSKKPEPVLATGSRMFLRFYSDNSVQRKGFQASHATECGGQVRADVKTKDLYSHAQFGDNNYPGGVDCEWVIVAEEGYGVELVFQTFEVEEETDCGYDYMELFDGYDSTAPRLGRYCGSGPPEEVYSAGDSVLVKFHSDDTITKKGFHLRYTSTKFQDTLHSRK
# [2] = target: T1, Bone morphogenetic protein 1; experiment: Inhibition of C-terminal FLAG-6x-His epitope tagged and N-terminal human RAGE signal sequence tagged human BMP1 (23 to 721 amino acids) expressed in CHO-E1A cells pre-incubated for 10 mins before promyostatin peptide substrate addition and measured after 30 mins using 50 nM BMP1 by FRET based assay; assay type: cell-based
# Tolloid-like protein 1 = Tolloid-like protein 1 (Homo sapiens, UniProt O43897, I156V/N221S/V284A); experiment: Inhibition of recombinant human TLL1 I156V/N221S/V284A mutant expressed in CHOE1A cells pre-incubated for 10 mins before promyostatin peptide substrate addition and measured after 60 mins by FRET based assay; assay type: cell-based
# Sequence of Tolloid-like protein 1 (O43897 148-1013 I156V/N221S/V284A limits assumed): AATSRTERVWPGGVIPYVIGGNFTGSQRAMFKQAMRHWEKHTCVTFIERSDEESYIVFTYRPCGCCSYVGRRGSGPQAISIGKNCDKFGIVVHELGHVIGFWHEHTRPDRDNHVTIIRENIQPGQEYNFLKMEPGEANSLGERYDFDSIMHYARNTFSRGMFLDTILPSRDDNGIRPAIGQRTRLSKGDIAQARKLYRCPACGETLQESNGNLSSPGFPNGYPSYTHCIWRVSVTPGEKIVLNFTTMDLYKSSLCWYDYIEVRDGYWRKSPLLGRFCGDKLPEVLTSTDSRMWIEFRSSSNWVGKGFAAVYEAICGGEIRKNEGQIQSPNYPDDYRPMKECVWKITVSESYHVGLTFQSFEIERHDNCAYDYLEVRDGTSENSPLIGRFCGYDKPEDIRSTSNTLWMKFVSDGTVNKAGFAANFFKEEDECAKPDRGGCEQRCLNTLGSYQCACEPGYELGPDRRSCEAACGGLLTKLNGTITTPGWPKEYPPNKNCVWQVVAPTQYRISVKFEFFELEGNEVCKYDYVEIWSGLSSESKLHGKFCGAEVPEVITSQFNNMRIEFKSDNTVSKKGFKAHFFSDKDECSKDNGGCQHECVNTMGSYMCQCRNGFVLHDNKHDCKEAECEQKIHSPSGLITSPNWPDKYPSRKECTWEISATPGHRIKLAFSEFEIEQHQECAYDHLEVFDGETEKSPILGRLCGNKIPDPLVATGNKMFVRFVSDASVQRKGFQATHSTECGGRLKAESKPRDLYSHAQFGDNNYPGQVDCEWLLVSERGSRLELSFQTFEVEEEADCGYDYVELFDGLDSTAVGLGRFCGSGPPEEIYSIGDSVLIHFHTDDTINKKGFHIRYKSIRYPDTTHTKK
# Tolloid-like protein 2 = target: T2, Tolloid-like protein 2 (Homo sapiens, UniProt Q9Y6L7); experiment: Inhibition of C-terminal Avi-6x-His epitope tagged and N-terminal human RAGE signal sequence tagged recombinant human TLL2 (26 to 1015 amino acids) expressed in CHOE1A cells incubated for 60 mins with promyostatin peptide substrate by FRET based assay; assay type: cell-based
# T2 sequence (Q9Y6L7 whole entry): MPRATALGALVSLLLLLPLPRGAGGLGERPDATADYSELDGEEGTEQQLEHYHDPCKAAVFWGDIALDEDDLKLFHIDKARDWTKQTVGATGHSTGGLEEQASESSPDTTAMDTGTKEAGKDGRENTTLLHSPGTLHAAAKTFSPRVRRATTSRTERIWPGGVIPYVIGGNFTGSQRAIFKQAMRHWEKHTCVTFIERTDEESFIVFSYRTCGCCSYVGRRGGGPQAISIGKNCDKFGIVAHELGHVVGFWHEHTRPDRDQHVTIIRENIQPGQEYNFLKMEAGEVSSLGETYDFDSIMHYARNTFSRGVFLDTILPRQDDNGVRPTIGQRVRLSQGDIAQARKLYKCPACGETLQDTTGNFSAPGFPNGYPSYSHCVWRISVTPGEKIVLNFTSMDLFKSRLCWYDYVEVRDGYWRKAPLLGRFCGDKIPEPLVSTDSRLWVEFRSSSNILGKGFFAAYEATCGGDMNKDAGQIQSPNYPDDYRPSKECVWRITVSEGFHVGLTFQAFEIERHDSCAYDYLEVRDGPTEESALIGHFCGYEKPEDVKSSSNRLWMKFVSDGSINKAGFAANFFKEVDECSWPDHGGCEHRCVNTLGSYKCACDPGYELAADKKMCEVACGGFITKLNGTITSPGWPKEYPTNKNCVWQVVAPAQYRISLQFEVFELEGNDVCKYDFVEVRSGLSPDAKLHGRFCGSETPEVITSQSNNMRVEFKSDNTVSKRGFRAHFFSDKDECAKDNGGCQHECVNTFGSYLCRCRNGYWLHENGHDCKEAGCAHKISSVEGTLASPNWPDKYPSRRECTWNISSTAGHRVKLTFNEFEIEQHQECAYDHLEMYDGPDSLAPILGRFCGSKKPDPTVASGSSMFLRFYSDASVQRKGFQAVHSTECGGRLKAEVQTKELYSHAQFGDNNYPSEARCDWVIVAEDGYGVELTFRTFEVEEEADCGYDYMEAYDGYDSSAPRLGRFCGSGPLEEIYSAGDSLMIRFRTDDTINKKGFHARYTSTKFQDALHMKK
# [3] = Reduction in PICP levels in human cardiac fibroblasts incubated for 24 to 48 hrs by ELISA; assay type: functional
# [4] = Reduction in mature collagen deposition levels in human cardiac fibroblasts incubated for 24 to 48 hrs by immunostaining based assay; assay type: functional
Structure (SMILES),IC50 [1] [nM],IC50 [2] [nM],IC50 (Tolloid-like protein 1) [nM],IC50 (Tolloid-like protein 2) [nM],IC50 [3] [nM],IC50 [4] [nM]
CCCCC[C@@H](C(=O)NCNC(=O)c1cccc(-c2ccc(CC(=O)O)c(OCC)c2)c1)[C@@H](CC)N(O)C=O,< 126,< 251,< 398,< 631,< 20000,< 1580
CCCCC[C@@H](C(=O)NCNC(=O)c1cncc(-c2ccc(P(=O)(O)O)c(OCC)c2)n1)[C@@H](CC)N(O)C=O,< 126,< 251,< 398,< 631,< 20000,< 1580
CCCCC[C@@H](C(=O)NCNC(=O)c1cccc(-c2cc(C(=O)O)cc(S(N)(=O)=O)c2)n1)[C@@H](CC)N(O)C=O,< 126,< 251,< 398,< 631,< 20000,< 1580
CCCCC[C@@H](C(=O)NCNC(=O)c1cccc(-c2ccc(CC(=O)N[C@@H](CC(=O)O)C(=O)O)c(OCC)c2)n1)[C@@H](CC)N(O)C=O,< 126,< 251,< 398,< 631,< 20000,< 1580
CCCCC[C@@H](C(=O)NCNC(=O)c1cccc(-c2ccc(C(=O)N[C@@H](CC(=O)O)C(=O)O)c(OCC)c2)n1)[C@@H](CC)N(O)C=O,< 126,< 251,< 398,< 631,< 20000,< 1580
CCCCC[C@@H](C(=O)NCNC(=O)c1ccnc(-c2ccc(P(=O)(O)O)c(OCC)c2)n1)[C@@H](CC)N(O)C=O,< 126,< 251,< 398,< 631,< 20000,< 1580
CCCCC[C@@H](C(=O)NCNC(=O)c1ccnc(-c2ccc(C(=O)O)c(OCC)c2)n1)[C@@H](CC)N(O)C=O,< 126,< 251,< 398,< 631,< 20000,< 1580
